{"source": "patent US12409206B2", "about": "“Use of cyclosporine analogues for treating fibrosis” (Hepion Pharmaceuticals, Inc., priority 2020, dated 2025)", "key": {"[1]": {"system": "hepatitis C", "details": "preclinical studies; cited from earlier work"}, "[2]": {"system": "Human cardiac fibroblasts", "assay": "Procollagen and fibronectin ELISA of spent medium, cardiac fibroblast culture", "type": "cell-based", "details": "6 days, both in the absence or presence of 0.4 ng/ml TGFβ", "experimental": "Human cardiac fibroblasts (Lonza Bioscience, Cat. #CC-2903) were cultured in 96-well plates. Treatments were applied in triplicate wells (applied 100 ul treatments per well) for 6 days. Cells were near confluence at the start of treatments. […] Spent culture medium collected at the end of treatments was assayed for procollagen and fibronectin by enzyme-linked immunosorbent assays (ELISA) (Procollagen ELISA antibody pair (ab216064) and fibronectin ELISA antibody pair (ab222262) from Abcam). Procollagen and fibronectin were not detected in medium not applied to cells. Procollagen and fibronectin levels in the medium are represented by means±SD (bars) from 3 replicate wells (open circles)."}}, "data": [{"smiles": "CC[C@@H]1NC(=O)[C@H]([C@H](O)[C@H](C)CCCCCCNC(C)=O)N(C)C(=O)[C@H](C(C)C)N(C)C(=O)[C@H](CC(C)C)N(C)C(=O)[C@H](CC(C)C)N(C)C(=O)[C@@H](C)NC(=O)[C@H](C)NC(=O)[C@H](CC(C)C)N(C)C(=O)[C@H](C(C)C)NC(=O)[C@H](CC(C)C)N(C)C(=O)[C@@H](C)N(C)C1=O", "note": "[CRV431]", "values": [{"measurement": "anti-viral activity", "setting": "[1]", "result": "shows anti-viral activity"}, {"measurement": "abundance of fibronectin in the medium", "setting": "[2]", "result": "dose-dependently decreased"}, {"measurement": "abundance of procollagen in the medium", "setting": "[2]", "result": "dose-dependently decreased"}]}]}
